# According to US20260102492A1, “Inhibition of Natural Killer Cell Cytoxocity” (University of Cincinnati, priority 2022, published 2026):
# Assays:
# [1] = system: HNSCC patient-derived NK cells; test: CXCL1 ELISA of NK cell culture supernatant; type: cell-based, Human
# Experimental: Healthy donor and HNSCC NK cells were isolated from PBMCs and were treated for 24 hrs with vehicle or metformin. Supernatant was collected and analyzed by ELISA (analyzed by one way ANOVA. n=10).
# HNSCC NK cells were isolated from PBMCs and treated with vehicle, 12 mM metformin, 50 ng CXCL1, 10 uM everolimus, or 10 uM BP-1-102 for 24 hr. The cells were washed and plated in fresh media. After 24 hrs, supernatant was collected for ELISA.
# [2] = system: HNSCC patient-derived NK cells; test: NK cell perforin ELISA after co-culture with Cal27 cells; type: cell-based, Human; conditions: for reversal of CXCL1 mediated inhibition of perforin: 50 ng CXCL1, Cal27 4 hours
# Experimental: For NK cell perforin assays, NK cells were treated with drug for 24 hrs, washed, and co-cultured with Cal27 cells for 4 hours. Supernatant was then collected, snap frozen in liquid nitrogen and stored at −80 until thawed for single use. For patient samples, undiluted plasma was added directly to ELISA. ELISA kit for perforin was obtained from ABCAM. ELISA was performed according to the manufacturer's protocol. Protocols included overnight coating of capture antibody diluted by lot number recommendation, 1 hr block with 400 uL 2% BSA in PBS, 2 hr sample incubation at room temperature of 100 uL sample (no dilution of sample was performed in these experiments), 2 hr […] diluted by lot number recommendation, 20 min Streptavidin incubation with 100 uL of 1:40 dilution of stock, and 15 min incubation with 100 uL included TMB ELISA reagent. 50 uL stop solution of in house 2N […] was added to stop reaction before reading at […] wavelength on plate reader. All plates included standard curve prepared per lot number recommendation with range of 35-2000 pg.
# HNSCC patient-derived NK cells were treated with exogenous CXCL1 and an inhibitor of the CXCL1 receptor, CXCR2, or metformin. Patient-derived NK cells were exposed to Cal27 cells for 4 hours and supernatant was collected for perforin analysis by ELISA. Specifically, HNSCC NK cells derived from PBMCs were treated with 50 ng CXCL1, 12 mM metformin, or 10 nM CXCR2i (navarixin) and subjected to perforin against Cal27 target cells. Cells were analyzed by flow and analyzed by one way ANOVA. n=8.
# Specifically, HNSCC NK cells were treated with vehicle, metformin, or 10 uM AMPK inhibitor (Dosomorphin) for 24 hrs, washed, and co-cultured with Cal27 cells for 4 hrs. Supernatant was collected for ELISA and analyzed by one way ANOVA. n=5.
# HNSCC patient-derived NK cells were treated with vehicle, metformin, 10 uM mTOR inhibitor (Everolimus), or 10 uM mTOR activator (MHY1485) for 24 hrs, washed, and co-cultured with Cal27 cells for 4 hrs. Supernatant was collected for ELISA and analyzed by one way ANOVA. n=5.
# As pSTAT1 can modulate perforin production, HNSCC patient-derived NK cells were treated with vehicle, […], or 10 uM of pSTAT1i inhibitor Fludarabine for 24 hrs, washed, and co-cultured with Cal27 cells for 4 hrs.
# HNSCC NK cells were treated with vehicle, 12 mM metformin, 50 ng CXCL1, or 10 uM pSTAT3 inhibitor BP-1012 and co-cultured with Cal27 cells for 4 hrs. Supernatant was collected for ELISA and analyzed by one way ANOVA. n=5.
# HNC cells = test: Natural killer cytotoxicity assay (NKCA), NK cells against CFSE labeled HNC cells (7AAD); type: cell-based; conditions: exogenous CXCL1 added to metformin treated NK cells
# Experimental: FIG. 12B is a graph showing NK cells that were treated with either pembrolizumab (PD-1 inhibitor), exogenous CXCL1, Navaxarin (CXCR2 inhibitor) or combination and combined with CFSE labeled HNC cells. Cytotoxicity was measured by 7AAD 4 hours after incubation. N=5, PBMCS or NK cells isolated from the same PBMCs from patient samples.
# NK cells were isolated from PBMCs using the EasySep Human NK Cell Isolation Kit (Stem Cell Technologies). Cells were washed in Robobuffer and treated with drug indicated in legend for 24 hrs in culture medium. One day before co-culture, cells were collected, washed, and stained with 5(6)-Carboxyfluorescein diacetate N-succinimidyl ester (CFDA-SE) (StemCell Technologies). Untreated UMSCC47, Cal-27, or matched primary HNC tumor cell lines cells were plated at 20,000 cell/ml and assumed to double overnight. NK cells were resuspended in RPMI 1640 (Corning) with 5% human serum at a density of 200,000 cells/ml. Cells were co-cultured for a Target:Effector ratio of 1:5 for 4 hrs, collected, and washed in flow buffer. Cells were then stained with 7AAD Viability Staining Solution (Biolegend). Cells were immediately run on a 4-laser BD Instrument (University of Cincinnati Cancer Cell Biology Department, Cincinnati, Ohio). […] NK killed cells were calculated by the following equation: (% CSFE+7AAD+experimental co-culture)−(% CSFE+7AAD+control no co-culture).
# pSTAT3 = test: Western blot of HNSCC NK cell lysates, pSTAT3; type: cell-based, Human
# Experimental: (§1) NK92, Cal27, UMSCC47 and HN5 cells were cultured with drug as described. Cells were collected in RIPA (0.05% sodium deoxycholate, […], 0.1% SDS, 1% NP-40) and protein content was analyzed by Pierce BCA kit (Thermo 23225). 50 ug of protein was diluted in 1×loading buffer (SDS, bromophenol blue, 47% glycerol, Tris 0.5M pH 6.8, 0.2 mM DTT-G) and heated to 90° C. for 3 minutes. Prepared lysate was loaded into gradient gels (Biorad 4561093) and run at 85V for 1.5 hour in Biorad casing with a Biorad powerpack in 1×running buffer (Tris, Glycine, SDS). Gels were transferred on nitrocellulose and run at 100V on bench for 1 hour in 1×transfer buffer (Tris, Glycine). Membranes were blocked in 5% BSA in TBS for 1 hr, washed, and incubated in primary diluted in 2% BSA in TBS overnight. Membranes were washed and incubated in Licor secondary (Licor 926-32211 and 925-68070) in 5% BSA in TBS for 1 hr. Membranes were washed and imaged on a Licor Odyssey Clx. Images were analyzed in Image Studio Lite V 5.2.
# (§2) To determine what those pathways could be, pathways known to be affected by both metformin and CXCL1 were investigated. pSTAT3 and mTOR are known to be increased by activation of the CXCR2 receptor, and mTOR activation can inhibit pSTAT1 expression. Metformin is also hypothesized to inhibit pSTAT3 and mTOR in NK cells. Therefore, HNSCC patient-derived NK cells treated with metformin, CXCL1, or CXCR2i (navaxarin) were collected and analyzed by western blot analysis. Head and neck squamous cell carcinoma (HNSCC) natural killer (NK) cells were treated with metformin, 50 ng CXCL1, or 10 uM CXCR2i (navarixin) for 24 hrs and collected for lysates analyzed by western blot analysis (FIG. 3A).
# pSTAT1 = test: Western blot of HNSCC NK cell lysates, pSTAT1; type: cell-based, Human; conditions: metformin or 50 ng CXCL1, 24 hrs, FIG. 3A/3B
# Experimental: as §1, with “Membranes were blocked in 5% BSA in TBS for 1 hr, washed, and incubated in primary diluted in 2% BSA in TBS overnight. Membranes were washed and incubated in Licor secondary (Licor 926-32211 and 925-68070) in 5% BSA in TBS for 1 hr. Membranes were washed and imaged on a Licor Odyssey Clx.” left out
# as §2, with “Metformin is also hypothesized to inhibit pSTAT3 and mTOR in NK cells.” left out
# CXCL1 [3] = test: Patient plasma CXCL1 ELISA, trial NCT02641093 (pre and post pembrolizumab); type: in vivo, Human
# CXCL1 [4] = test: Plasma CXCL1 of pembrolizumab treated head and neck cancer patients (FIG. 11); type: in vivo, Human; conditions: pembrolizumab treated patients vs baseline; preliminary data
# Source text: CXCL1 was knocked out by CRISP-Cas9 in NK cells as a novel approach in order to enhance their tumor cytotoxicity. These NK cells can be used as an “off the shelf” anti-cancer therapeutic. […] In addition, CXCL1 functions were inhibited with a CXCR2 inhibitor as an alternative treatment strategy with and without addition of a PD-1 inhibitor. […] In addition, the combination of pembrolizumab and CXCR2 inhibitor (Navaxarin) increases both PBMC and NK cell cytotoxicity (FIGS. 12A, 12B and 13).
# [5] = combination of 10 uM everolimus and 10 uM BP-1-102, also with 50 ng CXCL1, n=5
# [6] = single agent (12 mM metformin, 10 uM everolimus or 10 uM BP-1-102) 24 hr, fresh media 24 hrs, n=5, FIG. 8
# [7] = 10 uM single agent 24 hrs, Cal27 co-culture 4 hrs, n=5, FIG. 5
compound,measurement,setting,value
CN(CC(=O)N(Cc1ccc(C2CCCCC2)cc1)c1ccc(C(=O)O)c(O)c1)S(=O)(=O)c1c(F)c(F)c(F)c(F)c1F [BP-1-102],CXCL1 secretion,[1]; [5],decreased levels down to those similar of metformin even in the presence of CXCL1
same,CXCL1 secretion,[1]; [6],did not reduce CXCL1
same,rescue of CXCL1 mediated suppression of perforin,"[2]; 10 uM pSTAT3 inhibitor with 50 ng CXCL1, alone or with 12 mM metformin, Cal27 4 hrs, n=5",able to rescue CXCL1 mediated suppression of perforin both alone or in presence of metformin
same,perforin,"[2]; 10 uM pSTAT3 inhibitor, baseline, Cal27 co-culture 4 hrs, n=5, FIG. 7",no effect on perforin at baseline
"CC[C@@H](Nc1c(Nc2cccc(C(=O)N(C)C)c2O)c(=O)c1=O)c1ccc(C)o1 [CXCR2 inhibitor, Navarixin]",reversal of CXCL1 mediated inhibition of perforin,"[2]; 10 nM CXCR2i (navarixin) alone, n=8",reversed CXCL1 mediated inhibition
same,reversal of CXCL1 mediated inhibition of perforin,"[2]; 10 nM CXCR2i (navarixin) in combination with 12 mM metformin, n=8",reversed CXCL1 mediated inhibition
CO[C@H]1C[C@@H]2CC[C@@H](C)[C@@](O)(O2)C(=O)C(=O)N2CCCC[C@H]2C(=O)O[C@H]([C@H](C)C[C@@H]2CC[C@@H](OCCO)[C@H](OC)C2)CC(=O)[C@H](C)/C=C(\C)[C@@H](O)[C@@H](OC)C(=O)[C@H](C)C[C@H](C)/C=C/C=C/C=C/1C [Everolimus],CXCL1 secretion,[1]; [5],decreased levels down to those similar of metformin even in the presence of CXCL1
same,CXCL1 secretion,[1]; [6],did not reduce CXCL1
same,perforin production,"[2]; 10 uM Everolimus in combination with metformin 24 hrs, Cal27 co-culture 4 hrs, n=5",did not increase perforin over either agent alone
same,perforin production,[2]; [7],enhanced perforin production similar to metformin
O=[N+]([O-])c1ccc(Nc2nc(N3CCOCC3)nc(N3CCOCC3)n2)cc1 [MHY1485],perforin production,[2]; [7],did not result in suppression of perforin
C-X-C motif chemokine ligand 1 [CXCL1],metformin induced cytotoxicity,HNC cells,ablated metformin induced cytotoxicity
same,metformin reduction of pSTAT3,"pSTAT3; exogenous CXCL1 (50 ng) together with metformin, 24 hrs",reversed
same,pSTAT3,"pSTAT3; metformin or 50 ng CXCL1, 24 hrs, western blot, FIG. 3A/3B",increases pSTAT3
same,perforin production,"[2]; 12 mM metformin or 50 ng CXCL1, Cal27 target cells 4 hours, n=8, FIG. 2",reduced NK cell perforin production
same,metformin mediated NK degranulation,"[2]; exogenous CXCL1 added to metformin, FIG. 2",reverses metformin mediated NK degranulation
same,pSTAT1,pSTAT1,did not reverse pSTAT1 expression with metformin or change it from baseline
pembrolizumab,plasma CXCL1,"CXCL1 [3]; all patients, post vs pre pembrolizumab, FIG. 10A",significant increase in CXCL1
same,plasma CXCL1,"CXCL1 [3]; divided into responders and non-responders, n=10 each, FIG. 10B",non-responders accounted for the increase
same,plasma CXCL1,"CXCL1 [3]; divided into responders and non-responders, n=10 each, FIG. 10B, listed as Pembrolizumab",increased with non-responders
same,CXCL1 in plasma,CXCL1 [4],trend to higher levels of CXCL1
